Patent US10722496B2, “2-iminobiotin for use in the treatment of brain cell injury” (Neurophyxia B.V., priority 2015, dated 2020)
Several values for one entry are separate records, joined by “and”; a condition that tells them apart may be missing. Equal values may be shown once.

Key:
[1] = test system: IMR-32 cells; test: LDH cytotoxicity assay, hypoxia-induced cell damage; assay type: cell-based, human
Method: In vitro hypoxia was induced in the cell cultures by using our recently described system with minor modifications (Huang et al., 2013b; Weber et al., 2015; Zitta et al., 2010). Enzyme stock solutions (100×) of catalase and glucose oxidase (both from Sigma-Aldrich) were prepared in cell culture medium (DMEM/F12, 1% FCS; final concentration: 120 U/ml and 2 U/ml respectively; Sigma-Aldrich) leading to a decrease of partial pressure of oxygen (pO2) below 10 mmHg within 5 minutes. Hypoxic conditions were confirmed by using a tissue oxygen pressure monitor (LICOX® CMP Oxygen Catheter; Integra, Plainsboro, USA). After 7 hours of hypoxia, the cells were washed twice with PBS (PAA) and fresh normoxic medium supplemented with solvent (citrate buffer 1%) or 2-IB (10, 30, 50, 100 and 300 ng/mL) was added to the cells. Investigations of cell damage, metabolic activity, ROS, hydrogen peroxide, nitrite/nitrate production, erkl/2, akt and stat5 phosphorylation as well as cell stress protein expression were performed with cell culture media or cell protein (FIG. 1).
The release of LDH from cultured cells into the medium was quantified by using a colorimetric cytotoxicity detection kit (Roche, Mannheim, Germany). Samples were prepared based on the manufacturer's protocol. Briefly, culture media were collected 24 hours after hypoxia and stored at −20° C. For evaluation of total LDH, cells were lysed with 2% TRITON® X-100 (Carl Roth, Karlsruhe, Germany) for 15 minutes at 37° C. LDH activity of the samples was measured in 96-well plates at 490 nm using an ELISA reader (Tecan, Crailsheim, Austria) in combination with the Magellan software v1.1.

[2] = test system: PARP, akt and erkl/2; test: Western blotting for PARP, akt and erkl/2 under mild hypothermia; assay type: cell-based, human; conditions: post-hypoxic addition (30 ng/ml)
Method: In-vitro hypoxia was induced for 7 hours using IMR-32 cell cultures. After the hypoxic insult, cultures were subjected to 25 hours of mild hypothermia (33.5° C.) and were incubated with or without 2-IB (10, 30, 50, 100 and 300 ng/ml). Cell morphology was evaluated by brightfield microscopy and cell damage was analyzed by LDH assays. Production of reactive oxygen species (ROS) was measured using fluorometric assays. Western blotting for PARP and phosphorylated as well as unphosphorylated akt and erkl/2 was performed.

[3] = test system: 4VO rat model; test: Morris water maze after four-vessel occlusion (4VO); assay type: in vivo; conditions: for memory test, time spent in the right quadrant on day 32: 12 and 24 hours, mean±SD
Method: The rats were anesthetized using ketamine (90 mg/kg) and xylazine sodium ([…]), as described earlier (Meilin et al., 2014). The first cervical vertebrata was exposed and the vertebral arteries were permanently occluded by electrocauterization. The common carotid arteries were isolated through a ventral midline neck incision and lifted using a 4.0 silk suture ligature, placed around them.
Twenty-four hours post vertebral arterial occlusion, the animals were reanesthetized using isoflurane. The common carotid arteries were exposed and occluded using microaneurysm clips for 15 minutes. After removing the clips reperfusion occurred. The skin of the incision at the neck was sutured using 4-0 silk suture. During the operation animal's core temperature was monitored using a rectal probe (Model 400; YSI Inc., Yellow Springs, Ohio, USA) connected to a thermometer (Model 8402-00; Cole-Parmer Instrument Co. Ltd, London, UK). The ischemic insult was initiated when a rectal temperature of 37-38° C. was achieved, and this temperature was maintained throughout the procedure using a heating mattress.
During the acclimatization period rats were randomly assigned to experimental groups. The animals were subjected to 4VO per cage or one rat per cage was subjected to HI. Rats received either vehicle (normal saline at pH 3.8-4.0) or 2-IB (1.1 mg/kg, 3.3 mg/kg, 10 mg/kg and 30 mg/kg dissolved in 5 ml/kg normal saline at pH 3.8-4.0). Each dosing group was kept in separate cages to avoid cross-contamination by consuming stools during the study period. The experimental groups were as follows.
Tests were performed during day-time. Rats were introduced to a standardized 1.2 m-diameter pool filled with water for 120 seconds or until they located a platform hidden 1 cm below the water surface. Several visual cues were provided within the room in which the pool was located to allow rats to spatially navigate the water maze. […] Rats were allowed two attempts to find the hidden platform, and this learning test was performed over a period of 4 days (days 28-31). The memory test was performed on the fifth day (day 32), at which time the hidden platform was removed, and rats were placed in the pool for a single 60-second trial. The amount of time that each rat spent in the quadrant, where the hidden platform had previously been located, was recorded by an observer who was blinded to the experimental groups.
The Morris water maze was used to evaluate how well the rats remembered the location of the hidden platform, and whether they had learned to navigate towards the appropriate quadrant. The time that the rat spent in the right quadrant was measured. This was considered the primary outcome.
During the learning test the time to find a hidden platform in the water was calculated. Also the area under the curve (AUC) of the subsequent learning tests was calculated. These parameters were considered secondary outcomes.

[4] = Dose prediction simulations from covariate PK models; parameters: species or system human; Sim. AUCinf when dosing based on Crea0 from Table 6 / Sim. AUCinf when dosing based on eGFR: unit not given here
Method: Models were generated in order to determine the impact of dose adjustments and variability of AUC.
[…] and can be easily derived. (D=dose; CL=clearance)
An exploratory covariate analysis was performed looking at body weight, age, eGFR, SeCre, and Core temperature. The model used was as follows:
Dose correction for use at lower temperatures can be determined using the following equation: […]

N=C1N[C@H]2[C@H](CS[C@H]2CCCCC(=O)O)N1 [2-IB, 2-iminobiotin]
LDH/total LDH ([1]; 30 ng/ml 2-IB, hypoxia): 0.13±0.02
LDH/total LDH ([1]; 30 ng/ml 2-IB, normoxia): 0.11±0.03
LDH/total LDH ([1]; 50 ng/ml 2-IB, hypoxia): 0.14±0.04
LDH/total LDH ([1]; 50 ng/ml 2-IB, normoxia): 0.14±0.04
LDH/total LDH ([1]; 100 ng/ml 2-IB, hypoxia): 0.15±0.03
LDH/total LDH ([1]; 100 ng/ml 2-IB, normoxia): 0.10±0.02
LDH/total LDH ([1]; 300 ng/ml 2-IB, hypoxia): 0.20±0.06
LDH/total LDH ([1]; 300 ng/ml 2-IB, normoxia): 0.10±0.02
reduction of hypoxia-induced cell damage, most effective concentrations ([1]; 10-300 ng/ml tested, P<0.05 vs. control): 30 and 50 ng/ml 2-IB were the most effective concentrations
cleavage of PARP, akt and erkl/2 phosphorylation [2]: did not influence cleavage or phosphorylation of the mentioned molecules
AUC of the learning test from day 28 until 31 ([3]; 1.1 mg/kg/dose s.c.): 276±85
memory test, time spent in the right quadrant on day 32 ([3]; 1.1 mg/kg/dose s.c. upon reperfusion): 10.7 ± 4.4 s
AUC of the learning test from day 28 until 31 ([3]; 3.3 mg/kg/dose s.c.): 266±64
memory test, time spent in the right quadrant on day 32 ([3]; 3.3 mg/kg/dose s.c. upon reperfusion): 12.7 ± 6.7 s
AUC of the learning test from day 28 until 31 ([3]; 10 mg/kg/dose s.c.): 297±79
memory test, time spent in the right quadrant on day 32 ([3]; 10 mg/kg/dose s.c. upon reperfusion): 12.0 ± 7.3 s
AUC of the learning test from day 28 until 31 ([3]; 30 mg/kg/dose s.c.): 287±89
memory test, time spent in the right quadrant on day 32 ([3]; 30 mg/kg/dose s.c. upon reperfusion): 12.5 ± 6.0 s
learning test day 28 to day 31, time to find the hidden platform vs vehicle-treated rats ([3]; 1.1 (p<0.05), 3.3 (p<0.01) and 30 mg/kg/dose (p<0.05), Dunnett's post hoc): significant difference
Sim. AUCinf when dosing based on 4.8 mg for all ([4]; Table 8, covariate model with Crea0, individual patient (ID 1-8)): 220 and 292 and 765 and 847 and 642 and 993 and 427 and 266
Sim. AUCinf when dosing based on Crea0 from Table 6 ([4]; Table 8, individual patient (ID 1-8)): 676 and 494 and 588 and 781 and 692 and 1070 and 722 and 327
Sim. AUCinf when dosing based on 4.8 mg for all ([4]; Table 10, covariate model with eGFR, individual patient (ID 1-8)): 306 and 302 and 814 and 873 and 484 and 856 and 472 and 269
Sim. AUCinf when dosing based on 4.8 mg for all ([4]; Table 10, Max of 8 patients): 873
Sim. AUCinf when dosing based on eGFR ([4]; Table 10, Max of 8 patients): 922
Sim. AUCinf when dosing based on 4.8 mg for all ([4]; Table 10, Mean of 8 patients): 547
Sim. AUCinf when dosing based on eGFR ([4]; Table 10, Mean of 8 patients): 679
Sim. AUCinf when dosing based on 4.8 mg for all ([4]; Table 10, Median of 8 patients): 478
Sim. AUCinf when dosing based on eGFR ([4]; Table 10, Median of 8 patients): 713
Sim. AUCinf when dosing based on 4.8 mg for all ([4]; Table 10, Min of 8 patients): 269
Sim. AUCinf when dosing based on eGFR ([4]; Table 10, Min of 8 patients): 415
Sim. AUCinf when dosing based on eGFR ([4]; Table 10, individual patient (ID 1-8)): 802 and 465 and 626 and 806 and 596 and 922 and 800 and 415
CL at 33° relative to the CL at 36° ([4]; given the same Crea0, temperature correction equation): 37%
